# Source: patent US20230210857A1, “RESPIRATORY STIMULANT PARENTERAL FORMULATIONS” (Enalare Therapeutics Inc., priority 2021, published 2023)
# What was measured:
# Type in all cases: physicochemical
# [1] = Drug substance stability (API in closed Type I glass vials)
# Protocol: Methodology: Approximately 100 mg of the API (Lot 009MSB058) were stored at each of 40° C. and 60° C. in closed Type I glass vials. Samples were analyzed for appearance and percent purity at T0 and after 1 week, 2 weeks and 4 weeks of storage.
# Visually, there were no signs of degradation (i.e. discoloration etc.).
# [2] = pKa and theoretical free base solubility
# [3] = pH solubility study (100 mM citric acid, shaken overnight at room temperature, HPLC assay)
# Protocol: A pH solubility study was performed to assess the feasibility of formulating the active agent (N-(4,6-Bis-n-propylamino-[1,3,5]triazin-2-yl)-O,N-dimethyl-hydroxylamine) as a simple buffered solution at a reasonable pH for an IV formulation.
# Methodology: The active agent (N-(4,6-Bis-n-propyl amino-[1,3,5]triazin-2-yl)-O,N-dimethyl-hydroxylamine) and H2SO4 solution of concentration ˜107 mg/mL in 100 mM citric acid at pH 2.5 was prepared. About 150 μL aliquots of this solution were transferred into 6 separate glass HPLC vials. All the samples, including the solution at pH 2.5, were shaken overnight at room temperature using a gyratory shaker. After shaking, the samples were evaluated visually for the presence of precipitate and were then spin filtered through 0.45 μm syringe tip filters (4 mm diameter) at 3000 rpm for 20 min. The final pH values of the filtrates were measured. The filtrates were then diluted appropriately and analyzed for the active agent (N-(4,6-Bis-n-propylamino-[1,3,5]triazin-2-yl)-O,N-dimethyl-hydroxylamine). H2SO4 concentration using the HPLC assay.
# Results: The pH values of the samples prior to and after shaking overnight, appearance as well as concentrations of samples are shown in Table 12.
smiles,measurement,setting,value
"CCCNc1nc(NCCC)nc(N(C)OC)n1 [active agent, N-(4,6-Bis-n-propylamino-[1,3,5]triazin-2-yl)-O,N-dimethyl-hydroxylamine]",drug substance stability (in words),[1]; 4 weeks even at 60° C.,quite stable
same,Appearance,"[1]; 40° C., T = 1 week",White
same,Purity,"[1]; 40° C., T = 1 week",99.92%
same,Related Substances (Total),"[1]; 40° C., T = 1 week",Total 0.08
same,Appearance,"[1]; 40° C., T = 2 week",White
same,Purity,"[1]; 40° C., T = 2 week",99.90%
same,Related Substances (Total),"[1]; 40° C., T = 2 week",Total 0.10
same,Appearance,"[1]; 40° C., T = 4 week",White
same,Purity,"[1]; 40° C., T = 4 week",100.00%
same,Appearance,"[1]; 60° C., T = 1 week",powder
same,Purity,"[1]; 60° C., T = 1 week",99.76%
same,Related Substances (Total),"[1]; 60° C., T = 1 week",Total 0.24
same,Appearance,"[1]; 60° C., T = 2 week",powder
same,Purity,"[1]; 60° C., T = 2 week",100.00%
same,Appearance,"[1]; 60° C., T = 4 week",powder
same,Purity,"[1]; 60° C., T = 4 week",100.00%
same,Appearance,[1]; T = 0,White
same,Purity,[1]; T = 0,100.00%
same,pKa,[2],5.6
same,theoretical free base solubility,[2],about 0.18 mg/mL
same,Active Agent · H2SO4 Concentration,[3]; pH 2.42,104.1 mg/mL
same,Active Agent · H2SO4 Concentration,[3]; pH 3,99.8 mg/mL
same,Active Agent · H2SO4 Concentration,[3]; pH 3.51,101.6 mg/mL
same,Appearance after Shaking,[3]; target pH 2.5,Clear solution
same,Appearance after Shaking,[3]; target pH 3.0,Clear solution
same,Appearance after Shaking,[3]; target pH 3.5,Clear solution
same,Appearance after Shaking,[3]; target pH 4.0,Precipitate
same,Appearance after Shaking,[3]; target pH 4.5,Precipitate
same,Appearance after Shaking,[3]; target pH 5.0,Precipitate
same,Appearance after Shaking,[3]; target pH 5.5,Precipitate
